This is an account of results in patent US20230301981A1, “TLR7/8 ANTAGONISTS AND USES THEREOF” (Merck Patent GmbH, priority 2020, published 2023).

“And” between values parts separate entries of the source, which are not always exact repeats. Equal entries are not always repeated. Where two headings read alike, the source gives them in different places.

This assay deals with T1, TLR9 (Mus musculus, UniProt Q9EQU3).
T1 construct: from tissue; host or cells: primary splenocytes from C57BL-6/N mouse spleen
T1 sequence (Q9EQU3 26-1032): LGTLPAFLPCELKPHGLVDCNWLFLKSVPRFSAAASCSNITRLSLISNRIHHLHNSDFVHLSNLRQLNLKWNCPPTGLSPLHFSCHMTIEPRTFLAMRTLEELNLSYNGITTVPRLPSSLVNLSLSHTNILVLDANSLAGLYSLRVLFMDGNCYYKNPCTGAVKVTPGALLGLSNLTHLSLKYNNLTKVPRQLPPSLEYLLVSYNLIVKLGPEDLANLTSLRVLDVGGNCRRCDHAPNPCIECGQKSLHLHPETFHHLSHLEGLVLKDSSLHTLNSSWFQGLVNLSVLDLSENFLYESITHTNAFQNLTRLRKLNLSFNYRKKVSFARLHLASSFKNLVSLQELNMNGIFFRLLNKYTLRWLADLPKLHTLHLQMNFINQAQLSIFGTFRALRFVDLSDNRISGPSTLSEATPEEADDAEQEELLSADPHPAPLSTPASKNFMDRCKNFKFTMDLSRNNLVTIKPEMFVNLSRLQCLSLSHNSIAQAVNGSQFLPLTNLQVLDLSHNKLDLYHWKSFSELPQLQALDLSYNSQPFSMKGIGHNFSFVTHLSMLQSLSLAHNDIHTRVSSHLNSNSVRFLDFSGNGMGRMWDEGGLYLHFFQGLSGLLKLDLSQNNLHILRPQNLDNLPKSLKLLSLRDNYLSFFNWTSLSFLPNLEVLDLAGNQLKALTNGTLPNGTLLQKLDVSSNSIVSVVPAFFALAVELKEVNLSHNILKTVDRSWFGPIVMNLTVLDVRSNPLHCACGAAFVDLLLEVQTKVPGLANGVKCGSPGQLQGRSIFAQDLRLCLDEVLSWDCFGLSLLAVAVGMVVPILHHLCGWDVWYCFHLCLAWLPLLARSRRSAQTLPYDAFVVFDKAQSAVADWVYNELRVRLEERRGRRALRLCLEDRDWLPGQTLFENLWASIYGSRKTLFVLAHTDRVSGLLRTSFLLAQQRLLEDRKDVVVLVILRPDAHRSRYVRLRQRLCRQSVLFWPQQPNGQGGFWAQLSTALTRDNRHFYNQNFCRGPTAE
In words: Mouse spleenocytes cell assay with CpG stimulation (IL6/TNFa ELISA). In kind it is cell-based. The following applies: CpG 5 µM. On the procedure: Mouse spleen from healthy, female C57BL-6/N mice (n=2) were taken out in 50 mL tubes with B-Cell medium and the experiment started directly. The spleen was grinded through a cell strainer by using the punch of a syringe into a 50 mL Falcon tube. Cell strainer and punch were flushed with appropriate amount of washing buffer to avoid cellloss. Then the spleenocytes were centrifuged for 10 min at 552 xg (1600 rpm), 4° C. The erythrocytes within the cell pellet were lysed by resuspending pellet in 1 ml ACK-lysing buffer (4° C.) and incubate for 1 minute at RT. Lysis was stopped by filling up to 50 ml with washing buffer and centrifuged for 10 min at 552 xg (1600 rpm), 4° C. Cells were washed in B-cell Media (IMDM + 25 mM HEPES + 10%FCS + pen/strep + NEAA 10 nM + Sodium Pyrovat 100 nM, β-Mercaptoethanol 50 nM), counted and seeded in a density of 148500 cells per well in a 96 well MTP (135µl of 1,1×106c/ml). The cells were pre-treated with antimalarials (15 µL, in different concentrations according to dose-response curve ranging from 100 pM-50 µM)) for 30 min, at 37° C., 5% CO2, followed by TLR⅞ stimulation with R848 (15 µl, final concentration of 1 µM) or a TLR9 stimulation with CpG (15 µl, final concentration of 5 µM) and incubated at 37° C., 5% CO2 for 18 - 24 hours.
Supernatants were collected and transferred into a 96 well round bottom MTP and stored at -20° C. until ELISA formouse IL6 and mouse TNFa were performed. Plates were read directly after assay on an Envision Multiplate reader. Results were analyzed with GraphPadPrism V8.0. Plot the calculated amount of produced IL6 or TNFa in pg/ml on y-axis and the concentration of each MSC concentration at half logarhythmic scaling on the x-axis to achieve a dose-response curve. Determine IC50 values using Graph Pad Prism analysis software (Transform Y values using “X=Log(X) and log inhibitor vs. response; Variable slope (four parameters).

[1] abbreviates: IL6 readout, read-out: IC50 TLR9 (IL6 readout) mouse spleenocytes (n=2).
Where [2] appears, read: TNF readout, read-out: IC50 TLR9 (TNF readout) mouse spleenocytes (n=2).

Usually IC50 stands for the concentration that inhibits the measured activity by half. Regarding `COc1ccc2nc3cc(Cl)ccc3c(Nc3cc(CN4CCCC4)c(O)c(CN4CCCC4)c3)c2n1` [Compound 1, Pyronaridine], the IC50 by setting is: under setting [1], 14 nM and 35 nM; under setting [2], 21 nM and 140 nM.

Consider `CCN(CCO)CCCC(C)Nc1ccnc2cc(Cl)ccc12` (centres unmarked) [HYDROXY-CHLOROQUINE HCQ, hydroxychloroquine], for which the IC50 is 15400 nM and 1700 nM under setting [1]; 11500 nM under setting [2]. In addition, the “IC50 TLR9 (TNF readout) mouse spleenocytes (n=2)” value (TNF readout) is reported as “no suppr”.
